Converted amounts (≈) assume the structure as drawn. The source made the active and inactive calls. The calls are words filed in the database; no cut-off is given here. Square brackets hold non-standard residues; d marks the D form. Peptide text beside a SMILES is read from it. Phe(4-Br) = N[C@@H](Cc1ccc(Br)cc1)C(=O)O; Phe(4-Cl) = N[C@@H](Cc1ccc(Cl)cc1)C(=O)O; Phe(4-F) = N[C@@H](Cc1ccc(F)cc1)C(=O)O; Phe(4-I) = N[C@@H](Cc1ccc(I)cc1)C(=O)O; Hica(2S) = CC(C)C[C@H](O)C(=O)O
Tests used:
HCT-116 = experiment: Cytotoxicity against human HCT116 cells after 72 hrs by [3H]-thymidine uptake assay; format: functional, cell-based
HCT-15 [1] = experiment: Cytotoxicity against human HCT15 cells assessed as growth inhibition at 2 ug/ml after 72 hrs by [3H]-thymidine uptake assay; format: functional; settings: read-out: GI
HT-29 [2] = experiment: Cytotoxicity against human HT-29 cells after 72 hrs by [3H]-thymidine uptake assay; format: functional, cell-based
HCT-15 [3] = experiment: Cytotoxicity against human HCT15 cells assessed as growth inhibition at 20 ug/ml after 72 hrs by [3H]-thymidine uptake assay; format: functional; settings: read-out: GI
A549 [4] = experiment: Cytotoxicity against human A549 cells assessed as growth inhibition at 2 ug/ml after 72 hrs by [3H]-thymidine uptake assay; format: functional; settings: read-out: GI
HCT-15 [5] = experiment: Cytotoxicity against human HCT15 cells after 72 hrs by [3H]-thymidine uptake assay; format: functional, cell-based
HeLa [6] = experiment: Cytotoxicity against human HeLa cells after 72 hrs by [3H]-thymidine uptake assay; format: functional, cell-based
K562 [7] = experiment: Cytotoxicity against human K562 cells assessed as growth inhibition at 2 ug/ml after 72 hrs by [3H]-thymidine uptake assay; format: functional; settings: read-out: GI
MDA-MB-231 [8] = experiment: Cytotoxicity against human MDA-MB-231 cells after 72 hrs by [3H]-thymidine uptake assay; format: functional, cell-based
MDA-MB-231 [9] = experiment: Cytotoxicity against human MDA-MB-231 cells assessed as growth inhibition at 2 ug/ml after 72 hrs by [3H]-thymidine uptake assay; format: functional; settings: read-out: GI
A549 [10] = experiment: Cytotoxicity against human A549 cells after 72 hrs by [3H]-thymidine uptake assay; format: functional, cell-based
MDA-MB-231 [11] = experiment: Cytotoxicity against human MDA-MB-231 cells assessed as growth inhibition at 20 ug/ml after 72 hrs by [3H]-thymidine uptake assay; format: functional; settings: read-out: GI
HT-29 [12] = experiment: Cytotoxicity against human HT-29 cells assessed as growth inhibition at 20 ug/ml after 72 hrs by [3H]-thymidine uptake assay; format: functional; settings: read-out: GI
K562 [13] = experiment: Cytotoxicity against human K562 cells assessed as growth inhibition at 20 ug/ml after 72 hrs by [3H]-thymidine uptake assay; format: functional; settings: read-out: GI
HeLa [14] = experiment: Cytotoxicity against human HeLa cells assessed as growth inhibition at 2 ug/ml after 72 hrs by [3H]-thymidine uptake assay; format: functional; settings: read-out: GI
A549 [15] = experiment: Cytotoxicity against human A549 cells assessed as growth inhibition at 20 ug/ml after 72 hrs by [3H]-thymidine uptake assay; format: functional; settings: read-out: GI
K562 [16] = experiment: Cytotoxicity against human K562 cells after 72 hrs by [3H]-thymidine uptake assay; format: functional, cell-based
HeLa [17] = experiment: Induction of apoptosis in human HeLa cells assessed as membrane blebbing and nuclear fragmentation at 1.8 ug/ml after 24 hrs by light microscopy analysis; format: functional, cell-based
[18] = Induction of apoptosis in human VSMC cells assessed as morphological changes at 1.8 ug/ml after 24 hrs by light microscopy analysis; format: cell-based
HeLa [19] = experiment: Induction of apoptosis in human HeLa cells assessed as rounded and smaller cells at 1.8 ug/ml after 24 hrs by light microscopy analysis; format: functional, cell-based
HeLa [20] = experiment: Induction of apoptosis in human HeLa cells assessed as decrease in cell density at 1.8 ug/ml after 24 hrs by light microscopy analysis; format: functional, cell-based
HT-29 [21] = experiment: Cytotoxicity against human HT-29 cells assessed as growth inhibition at 2 ug/ml after 72 hrs by [3H]-thymidine uptake assay; format: functional; settings: read-out: GI

Row | SMILES | IC50 (HCT-116) [µg/mL] | inhibition of growth at 20 µg/mL (HCT-15 [3]) [%] | inhibition of growth at 20 µg/mL (MDA-MB-231 [11]) [%] | inhibition of growth at 20 µg/mL (HT-29 [12]) [%] | inhibition of growth at 20 µg/mL (K562 [13]) [%] | inhibition of growth at 20 µg/mL (A549 [15]) [%] | other results
1 | CC(C)C[C@@H]1NC(=O)[C@H](C(C)C)NC(=O)[C@H](CC(C)C)OC(=O)[C@H](CC(C)C)NC(=O)[C@H](Cc2ccc(Br)cc2)NC1=O (cyclo(L[Phe(4-Br)]L[Hica(2S)]V)) | 4.5 (≈ 6.76 µM) | – | – | – | – | – | –
2 | CC(C)C[C@@H]1NC(=O)[C@H](C(C)C)NC(=O)[C@H](CC(C)C)OC(=O)[C@H](CC(C)C)NC(=O)[C@H](Cc2ccccc2)NC1=O (cyclo(FL[Hica(2S)]VL)) | 9.8 (≈ 16.7 µM) | – | – | – | – | – | –
3 | COc1ccc(C[C@@H]2NC(=O)[C@H](CC(C)C)NC(=O)[C@H](C(C)C)NC(=O)[C@H](CC(C)C)NC(=O)[C@H](CC(C)C)NC2=O)cc1 (cyclo(LLVLY(Me))) | – | 80.8 | 43.2 | 88.5 | 93.8 | 98.2 | inhibition of growth at 2 µg/mL (HCT-15 [1]): 78.8%; IC50 (HT-29 [2]): 3.38 µM; inhibition of growth at 2 µg/mL (A549 [4]): 91.3%; IC50 (HCT-15 [5]): 3.54 µM; IC50 (HeLa [6]): 3.22 µM; inhibition of growth at 2 µg/mL (K562 [7]): 86.5%; IC50 (MDA-MB-231 [8]): 11.1 µM; inhibition of growth at 2 µg/mL (MDA-MB-231 [9]): 40.5%; IC50 (A549 [10]): 2.41 µM; inhibition of growth at 2 µg/mL (HeLa [14]): 50.9%; IC50 (K562 [16]): 2.87 µM; Activity (HeLa [17]): Active; Activity [18]: Non-toxic; Activity (HeLa [19]): Active; Activity (HeLa [20]): Active; inhibition of growth at 2 µg/mL (HT-29 [21]): 76.4%
4 | CC(C)C[C@@H]1NC(=O)[C@H](Cc2ccc(I)cc2)NC(=O)[C@H](CC(C)C)NC(=O)[C@H](C(C)C)NC(=O)[C@H](CC(C)C)NC1=O (cyclo(LLVL[Phe(4-I)])) | 1.12 (≈ 1.57 µM) | – | – | – | – | – | –
5 | CC(C)C[C@@H]1NC(=O)[C@H](Cc2ccc(F)cc2)NC(=O)[C@H](CC(C)C)NC(=O)[C@H](C(C)C)NC(=O)[C@H](CC(C)C)NC1=O (cyclo(LLVL[Phe(4-F)])) | – | 21 | 12.3 | 0 | 58.2 | 30.8 | –
6 | CC(C)C[C@@H]1NC(=O)[C@H](Cc2ccccc2)NC(=O)[C@H](CC(C)C)NC(=O)[C@H](C(C)C)NC(=O)[C@H](CC(C)C)NC1=O (cyclo(FLLVL)) | 0.98 (≈ 1.67 µM) | 23.1 | 23.6 | 21.5 | 45.3 | 26.6 | –
7 | CC(C)C[C@@H]1NC(=O)[C@H](Cc2ccc(Br)cc2)NC(=O)[C@H](CC(C)C)NC(=O)[C@H](C(C)C)NC(=O)[C@H](CC(C)C)NC1=O (cyclo([Phe(4-Br)]LLVL)) | 0.58 (≈ 0.873 µM) | 74.3 | 89.3 | 80.2 | – | – | –
8 | CC(C)C[C@@H]1NC(=O)[C@H](Cc2ccc(O)cc2)NC(=O)[C@H](CC(C)C)NC(=O)[C@H](C(C)C)NC(=O)[C@H](CC(C)C)NC1=O (cyclo(LLVLY)) | – | 52 | 42.5 | 34.6 | – | – | –
9 | CC(C)C[C@@H]1NC(=O)[C@H](Cc2ccc(Cl)cc2)NC(=O)[C@H](CC(C)C)NC(=O)[C@H](C(C)C)NC(=O)[C@H](CC(C)C)NC1=O (cyclo(LLVL[Phe(4-Cl)])) | – | 1.21 | 15 | 1.23 | 3.57 | 5.2 | –
10 | CC(C)C[C@@H]1NC(=O)[C@H](C(C)C)NC(=O)[C@H](CC(C)C)OC(=O)[C@H](CC(C)C)NC(=O)[C@H](Cc2ccc(I)cc2)NC1=O (cyclo(L[Phe(4-I)]L[Hica(2S)]V)) | 11.3 (≈ 15.9 µM) | – | – | – | – | – | –
